Experimental findings from ChEMBL document CHEMBL1201862, “PubChem BioAssay data set” (2004) are described below.

The target of assay [1] is Metabotropic glutamate receptor 3 (Rattus norvegicus, UniProt P31422). As to the kind of experiment: Modulation of the Metabotropic Glutamate Receptor mGluR4: Selectivity at mGluR3. [Related pubchem assays (depositor defined):AID2437, AID2807]. The class given is functional.
In assay [2] the target is Metabotropic glutamate receptor 6 (Homo sapiens, UniProt O15303). As to the kind of experiment: Modulation of the Metabotropic Glutamate Receptor mGluR4: Selectivity at mGluR6. [Related pubchem assays (depositor defined):AID2437, AID2807]. The assay is classed as functional.
Sequence of Metabotropic glutamate receptor 6 (O15303 whole entry): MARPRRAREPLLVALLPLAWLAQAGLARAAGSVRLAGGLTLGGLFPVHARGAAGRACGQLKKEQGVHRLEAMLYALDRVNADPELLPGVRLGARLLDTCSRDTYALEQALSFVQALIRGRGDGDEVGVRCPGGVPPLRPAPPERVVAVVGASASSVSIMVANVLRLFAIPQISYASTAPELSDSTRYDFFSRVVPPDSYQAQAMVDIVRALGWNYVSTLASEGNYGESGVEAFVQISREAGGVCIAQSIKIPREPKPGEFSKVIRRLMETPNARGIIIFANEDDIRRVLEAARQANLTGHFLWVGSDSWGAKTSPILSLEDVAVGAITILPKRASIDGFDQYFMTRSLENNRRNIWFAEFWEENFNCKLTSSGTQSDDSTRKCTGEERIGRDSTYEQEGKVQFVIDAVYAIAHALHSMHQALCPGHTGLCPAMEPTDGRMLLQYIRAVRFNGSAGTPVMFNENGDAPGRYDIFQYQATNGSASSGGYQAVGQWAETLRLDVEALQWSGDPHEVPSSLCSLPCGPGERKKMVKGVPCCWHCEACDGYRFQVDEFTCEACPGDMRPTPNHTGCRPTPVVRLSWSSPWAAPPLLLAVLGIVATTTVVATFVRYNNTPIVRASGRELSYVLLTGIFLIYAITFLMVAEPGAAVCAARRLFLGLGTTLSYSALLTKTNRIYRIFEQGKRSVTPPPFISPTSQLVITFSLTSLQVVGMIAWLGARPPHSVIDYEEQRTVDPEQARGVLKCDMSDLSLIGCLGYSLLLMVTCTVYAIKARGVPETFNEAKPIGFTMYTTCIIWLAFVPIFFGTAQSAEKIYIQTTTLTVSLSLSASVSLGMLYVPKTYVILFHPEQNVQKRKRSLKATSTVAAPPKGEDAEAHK
Assay [3] concerns the target Metabotropic glutamate receptor 1 (Rattus norvegicus, UniProt P23385). As to the kind of experiment: Modulation of the Metabotropic Glutamate Receptor mGluR4: Selectivity at mGluR1. [Related pubchem assays (depositor defined):AID2437, AID2807]. The assay is classed as functional.
In assay [4] the target is Metabotropic glutamate receptor 8 (Rattus norvegicus, UniProt P70579). As to the kind of experiment: Modulation of the Metabotropic Glutamate Receptor mGluR4: Selectivity at mGluR8. [Related pubchem assays (depositor defined):AID2437, AID2807]. The class given is functional.
Sequence of Metabotropic glutamate receptor 8 (P70579 whole entry): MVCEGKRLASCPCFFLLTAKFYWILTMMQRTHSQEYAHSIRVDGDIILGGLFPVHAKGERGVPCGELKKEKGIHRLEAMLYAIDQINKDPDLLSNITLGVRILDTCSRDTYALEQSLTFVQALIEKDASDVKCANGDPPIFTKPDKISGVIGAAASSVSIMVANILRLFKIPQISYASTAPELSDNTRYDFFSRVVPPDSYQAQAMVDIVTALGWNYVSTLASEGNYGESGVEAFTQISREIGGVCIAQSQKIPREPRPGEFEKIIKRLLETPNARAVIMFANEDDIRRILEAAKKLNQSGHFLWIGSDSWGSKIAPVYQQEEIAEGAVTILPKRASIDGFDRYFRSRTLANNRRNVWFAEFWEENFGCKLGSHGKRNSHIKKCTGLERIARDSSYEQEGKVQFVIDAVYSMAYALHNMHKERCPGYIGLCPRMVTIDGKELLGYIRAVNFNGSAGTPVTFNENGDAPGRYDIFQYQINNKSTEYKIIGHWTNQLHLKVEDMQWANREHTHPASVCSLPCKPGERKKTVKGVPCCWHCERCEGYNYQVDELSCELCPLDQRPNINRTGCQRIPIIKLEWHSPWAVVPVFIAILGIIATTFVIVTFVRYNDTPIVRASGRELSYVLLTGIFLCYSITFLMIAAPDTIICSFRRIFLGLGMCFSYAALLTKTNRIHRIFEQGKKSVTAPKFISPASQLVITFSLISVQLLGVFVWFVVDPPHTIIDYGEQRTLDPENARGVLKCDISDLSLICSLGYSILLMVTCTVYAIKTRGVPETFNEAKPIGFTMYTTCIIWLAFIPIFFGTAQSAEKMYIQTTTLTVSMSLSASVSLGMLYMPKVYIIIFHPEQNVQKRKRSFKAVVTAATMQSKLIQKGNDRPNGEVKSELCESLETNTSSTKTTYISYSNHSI
For assay [5], the target named is Metabotropic glutamate receptor 2 (Rattus norvegicus, UniProt P31421). As to the kind of experiment: rat mGluR2 glutamate potency shift by compounds, selectivity assay for mGluR4 modulator project, cell-based (AID 2188). The assay is classed as functional.
Sequence of Metabotropic glutamate receptor 2 (P31421 whole entry): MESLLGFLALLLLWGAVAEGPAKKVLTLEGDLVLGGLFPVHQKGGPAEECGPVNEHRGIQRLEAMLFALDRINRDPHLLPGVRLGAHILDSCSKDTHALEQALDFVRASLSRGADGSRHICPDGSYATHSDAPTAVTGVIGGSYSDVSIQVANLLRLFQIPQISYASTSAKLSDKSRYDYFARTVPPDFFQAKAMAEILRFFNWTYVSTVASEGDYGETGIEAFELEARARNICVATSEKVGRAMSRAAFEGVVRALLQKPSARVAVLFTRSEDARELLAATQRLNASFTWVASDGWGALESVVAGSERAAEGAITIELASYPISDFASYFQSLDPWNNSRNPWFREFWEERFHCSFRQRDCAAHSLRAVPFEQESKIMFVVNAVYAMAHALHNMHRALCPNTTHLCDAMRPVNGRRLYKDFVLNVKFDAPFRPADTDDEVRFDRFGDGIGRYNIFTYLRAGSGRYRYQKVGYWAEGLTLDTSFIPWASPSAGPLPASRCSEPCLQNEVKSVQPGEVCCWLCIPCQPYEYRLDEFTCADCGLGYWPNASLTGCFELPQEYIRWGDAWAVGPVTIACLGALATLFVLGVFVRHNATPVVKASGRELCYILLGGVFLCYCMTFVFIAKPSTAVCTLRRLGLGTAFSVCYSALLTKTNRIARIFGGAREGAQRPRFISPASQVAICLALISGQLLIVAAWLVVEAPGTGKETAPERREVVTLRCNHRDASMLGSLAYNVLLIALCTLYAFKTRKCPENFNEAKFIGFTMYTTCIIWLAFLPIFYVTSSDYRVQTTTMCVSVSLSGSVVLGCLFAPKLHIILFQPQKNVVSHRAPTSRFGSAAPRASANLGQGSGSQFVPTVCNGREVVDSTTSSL
The nature of assay [6]: cytotoxicity toward NIH3T3 fibroblasts, dose response, counter-screen, cell-based, ATP luminescence, mouse fibroblasts (AID 2010).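 Note: cells exposed to compound for about 90 hours before reading.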 The class given is functional.
The next assay has as its target Troponin, cardiac muscle (Homo sapiens, UniProt P19429+P45379+P63316). In words: Fluorescence-based biochemical high throughput dose response assay for activators of the calcium sensitivity of cardiac Regulated Thin Filaments (RTF). [Related pubchem assays (depositor defined):AID493008, AID493018, AID504382, AID504383]. The class given is protein-complex assay.
Assay [7] can be described thus: inhibitors of intracellular T. cruzi replication, confirmation, NIH3T3 host cells, beta-gal luminescence (AID 2044).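 Note: intracellular parasites grown in NIH/3T3 mouse fibroblasts as host cells; luminescent beta-galactosidase reporter signal from transgenic T. cruzi replicating inside host cells; inhibitors lower the luminescence signal.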 The class given is functional, cell-based.
Assay [8] deals with G-protein coupled receptor 55 (Homo sapiens, UniProt Q9Y2T6). As to the kind of experiment: GPR55 antagonists, SAR follow-up, counter-screen for GPR35 antagonist project, imaging, image-based (AID 2397). The class given is functional.
Sequence of G-protein coupled receptor 55 (Q9Y2T6 whole entry): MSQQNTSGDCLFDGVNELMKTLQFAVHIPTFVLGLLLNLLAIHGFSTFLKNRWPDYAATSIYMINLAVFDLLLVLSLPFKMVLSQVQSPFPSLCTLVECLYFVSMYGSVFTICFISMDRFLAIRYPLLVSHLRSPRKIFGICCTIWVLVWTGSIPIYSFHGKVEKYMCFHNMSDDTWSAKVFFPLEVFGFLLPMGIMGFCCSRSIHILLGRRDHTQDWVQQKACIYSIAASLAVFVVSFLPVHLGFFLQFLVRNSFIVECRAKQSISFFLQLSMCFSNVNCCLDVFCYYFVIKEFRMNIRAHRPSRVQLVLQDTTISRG
A further assay deals with INS1. In words: beta cell apoptosis inhibitors, cytokine rescue, dose response, luminescence, retest (AID 449756).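 Note: cell death triggered by IL-1 beta plus TNF-alpha plus IFN-gamma mixture; protective hits raise ATP signal compared with cytokine alone wells.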 To be noted: Rattus norvegicus. The assay is classed as functional, cell-based.
Assay [9] concerns the target DNA dC->dU-editing enzyme APOBEC-3G (Homo sapiens, UniProt Q9HC16). The class given is functional.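 Note: Dose-response counterscreen measuring inhibition of APOBEC3G DNA deaminase activity, run while confirming APOBEC3A inhibitors.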
The target of assay [10] is DNA dC->dU-editing enzyme APOBEC-3A (Homo sapiens, UniProt P31941). As to the kind of experiment: Dose Response confirmation of small molecule APOBEC3A DNA Deaminase Inhibitors via a fluorescence-based single-stranded DNA deaminase assay. [Related pubchem assays (depositor defined):AID493011, AID493024]. The class given is functional.
Sequence of DNA dC->dU-editing enzyme APOBEC-3A (P31941 whole entry): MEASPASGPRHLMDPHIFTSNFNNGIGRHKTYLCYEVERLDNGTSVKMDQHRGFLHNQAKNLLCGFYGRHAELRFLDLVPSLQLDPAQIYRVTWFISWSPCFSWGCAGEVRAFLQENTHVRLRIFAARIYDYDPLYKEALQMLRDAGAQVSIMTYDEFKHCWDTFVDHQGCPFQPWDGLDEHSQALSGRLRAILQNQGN
Assay [11] addresses G-protein coupled receptor 35 (Homo sapiens, UniProt Q9HC97). As to the kind of experiment: GPR35 antagonists blocking zaprinast-driven arrestin recruitment, primary screen, imaging, U2OS, beta-arrestin-GFP, zaprinast agonist (AID 2058).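 Note: antagonist potency meaning inhibition of agonist-induced arrestin redistribution.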 The class given is functional.
Assay [12] concerns the target T1, Mannose-6-phosphate isomerase (Homo sapiens, UniProt P34949).
T1 sequence (P34949 whole entry): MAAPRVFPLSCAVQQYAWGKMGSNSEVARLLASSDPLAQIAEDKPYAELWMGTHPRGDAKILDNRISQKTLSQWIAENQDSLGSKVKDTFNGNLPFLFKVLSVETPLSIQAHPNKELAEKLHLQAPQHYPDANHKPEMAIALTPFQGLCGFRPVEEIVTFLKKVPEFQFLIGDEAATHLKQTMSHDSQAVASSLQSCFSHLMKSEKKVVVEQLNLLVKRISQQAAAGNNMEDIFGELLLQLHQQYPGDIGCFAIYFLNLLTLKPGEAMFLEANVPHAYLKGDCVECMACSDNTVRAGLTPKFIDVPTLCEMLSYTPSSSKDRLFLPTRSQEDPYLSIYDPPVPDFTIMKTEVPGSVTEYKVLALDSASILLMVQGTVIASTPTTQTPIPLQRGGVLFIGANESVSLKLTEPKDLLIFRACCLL
As to the kind of experiment: PMI enzyme inhibitors, confirmation, biochemical, fluorescence intensity (AID 1535).

For a further assay, the target named is Phosphomannomutase 2 (Homo sapiens, UniProt O15305). In words: Counter screen SAR assay for PMM2 inhibitors via a fluorescence intensity assay. [Related pubchem assays (depositor defined):AID1545, AID1574].
Sequence of Phosphomannomutase 2 (O15305 whole entry): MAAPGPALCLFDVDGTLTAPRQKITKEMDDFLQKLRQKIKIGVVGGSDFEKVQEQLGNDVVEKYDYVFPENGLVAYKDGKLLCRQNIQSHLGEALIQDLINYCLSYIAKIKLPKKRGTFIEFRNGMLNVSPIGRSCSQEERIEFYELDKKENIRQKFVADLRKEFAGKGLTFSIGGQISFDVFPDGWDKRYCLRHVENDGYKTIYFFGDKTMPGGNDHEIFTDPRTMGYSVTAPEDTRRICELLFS
The target in assay [13] is Voltage-dependent T-type calcium channel subunit alpha-1H (Homo sapiens, UniProt O95180). As to the kind of experiment: Cav3.2 T-type channel blockers, cell-based, SynthLib3 library, HEK293 Cav3.2, fluorescence (AID 493041). The assay is classed as functional.

Several values for one entry are separate records, joined by “and”; a condition that tells them apart may be missing. Equal values may be shown once. Activity calls are given as the source filed them. Unless noted, no cut-off for these calls is given here.

Sequence of DNA dC->dU-editing enzyme APOBEC-3G (Q9HC16 whole entry): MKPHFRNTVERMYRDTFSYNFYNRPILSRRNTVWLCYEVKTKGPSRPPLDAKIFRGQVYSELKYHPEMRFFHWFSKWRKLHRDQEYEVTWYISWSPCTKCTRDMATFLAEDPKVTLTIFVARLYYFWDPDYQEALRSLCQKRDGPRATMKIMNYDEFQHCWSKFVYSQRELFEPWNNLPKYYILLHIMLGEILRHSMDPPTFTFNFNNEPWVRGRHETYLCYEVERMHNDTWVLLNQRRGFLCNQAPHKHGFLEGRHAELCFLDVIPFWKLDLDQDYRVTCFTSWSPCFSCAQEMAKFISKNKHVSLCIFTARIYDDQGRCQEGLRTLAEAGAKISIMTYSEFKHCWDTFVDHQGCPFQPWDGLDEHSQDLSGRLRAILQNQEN
Sequence of Metabotropic glutamate receptor 1 (P23385 whole entry): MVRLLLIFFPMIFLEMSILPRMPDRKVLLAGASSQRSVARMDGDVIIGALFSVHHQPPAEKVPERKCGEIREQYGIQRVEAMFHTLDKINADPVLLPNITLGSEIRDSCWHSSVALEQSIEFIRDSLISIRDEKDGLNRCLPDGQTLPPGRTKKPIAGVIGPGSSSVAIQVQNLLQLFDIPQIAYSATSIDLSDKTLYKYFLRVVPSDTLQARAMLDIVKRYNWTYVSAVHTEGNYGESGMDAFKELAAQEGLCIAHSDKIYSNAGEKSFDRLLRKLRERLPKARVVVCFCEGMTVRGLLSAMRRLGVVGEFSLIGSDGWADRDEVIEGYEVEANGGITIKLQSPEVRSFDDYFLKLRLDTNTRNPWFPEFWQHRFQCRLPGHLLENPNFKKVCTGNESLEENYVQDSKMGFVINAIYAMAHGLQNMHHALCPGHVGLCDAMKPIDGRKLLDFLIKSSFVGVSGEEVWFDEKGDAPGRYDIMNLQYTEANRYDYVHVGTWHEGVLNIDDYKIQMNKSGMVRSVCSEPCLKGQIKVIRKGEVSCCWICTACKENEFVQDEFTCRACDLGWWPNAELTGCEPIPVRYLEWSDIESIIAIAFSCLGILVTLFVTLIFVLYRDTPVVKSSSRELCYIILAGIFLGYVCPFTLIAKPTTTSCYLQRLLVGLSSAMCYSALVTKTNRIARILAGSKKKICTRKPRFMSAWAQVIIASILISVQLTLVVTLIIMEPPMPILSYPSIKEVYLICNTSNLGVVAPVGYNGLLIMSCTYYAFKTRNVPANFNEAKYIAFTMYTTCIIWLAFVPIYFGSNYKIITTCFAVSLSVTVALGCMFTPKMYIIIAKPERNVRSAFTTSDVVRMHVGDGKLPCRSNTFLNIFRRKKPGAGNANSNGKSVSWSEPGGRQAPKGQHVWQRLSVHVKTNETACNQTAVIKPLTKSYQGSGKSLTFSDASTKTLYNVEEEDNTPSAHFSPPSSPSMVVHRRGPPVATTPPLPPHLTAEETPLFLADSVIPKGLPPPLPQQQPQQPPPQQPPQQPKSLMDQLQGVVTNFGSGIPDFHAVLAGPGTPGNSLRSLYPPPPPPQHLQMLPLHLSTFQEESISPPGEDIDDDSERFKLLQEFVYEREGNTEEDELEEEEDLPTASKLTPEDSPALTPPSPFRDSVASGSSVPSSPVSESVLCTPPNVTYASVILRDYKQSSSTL

With `O=C(Nc1ccc(N2C(=O)[C@H]3[C@H](C2=O)[C@H]2C=C[C@@H]3C2)c(Cl)c1)c1ccccn1`, the EC50 was 514 nM (inactive) in assay [1]; 2510 nM (active) in assay [2]; 1400 nM (inactive) in [3]; 11000 nM (inactive) in assay [4]; 787 nM (inactive) in assay [5].

Consider `C=CCn1c(C)c(/C=C/c2cc[n+](C)cc2)c2ccccc21`, for which the concentration giving a half-maximal response (EC50) in assay [6] was > 60000 nM (not active); at Troponin, cardiac muscle, 1880 nM (active); in assay [7], 690 nM (active). Also, the IC50 in assay [8] was 2790 nM (active); in assay [9], 16300 nM (active); in [10] it was > 100000 nM (inactive); in assay [11] it was 1970 nM (active). Further, the AC50 in the assay with INS1 is 6540 nM (active).

On to `Clc1nss/c1=N\c1nncs1`, for which the IC50 was 3.1 µM (active) and 2.3 µM (active) in [12]; > 100000 nM (inactive) at Phosphomannomutase 2.

With `O=C(NCC1[C@H]2CN(CC3CCCC3)C[C@@H]12)c1cc(Cl)cc(Cl)c1` (stereo partly specified), in assay [13], the EC50 was 3000 nM (active).
